Measurements: ChEMBL document CHEMBL1201862, “PubChem BioAssay data set” (2004)
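Growth conditions: 96-well plates. Treatment: test compound, 48 hours, 5 concentrations. Analysis: linear interpolation between bracketing concentrations; unreached endpoints set to highest concentration. The concentration for 50% growth inhibition is given as GI50.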 The source made the active and inactive calls. Rule as the data show it: active = GI50 up to about 1.1 µM and inactive = higher.

How the values were obtained:
Assay in all cases: growth of human tumour cells (NCI), 48 h
EKVX = system: EKVX
HCC 2998 = system: HCC 2998
SN12C = system: SN12C
UO-31 = system: UO-31
SNB-19 = system: SNB-19
SF-268 = system: SF-268
SW-620 = system: SW-620
M14 = system: M14
UACC-257 = system: UACC-257
OVCAR-3 = system: OVCAR-3
OVCAR-5 = system: OVCAR-5
Malme-3M = system: Malme-3M
OVCAR-8 = system: OVCAR-8
RPMI-8226 = system: RPMI-8226
NCI-H460 = system: NCI-H460
HOP-92 = system: HOP-92
CAKI-1 = system: CAKI-1
A498 = system: A498

Compound | GI50 (EKVX) | GI50 (HCC 2998) | GI50 (SN12C) | GI50 (UO-31) | GI50 (SNB-19) | GI50 (SF-268) | GI50 (SW-620) | GI50 (M14) | GI50 (UACC-257) | GI50 (OVCAR-3) | GI50 (OVCAR-5) | GI50 (Malme-3M) | GI50 (OVCAR-8) | GI50 (RPMI-8226) | GI50 (NCI-H460) | GI50 (HOP-92) | GI50 (CAKI-1) | GI50 (A498)
CC(C)(C)C1=Nc2c(Br)cc(C(C)(C)C)cc2C(C(F)(F)F)(C(F)(F)F)O1 | > 100 µM (inactive) | 29.9 µM (inactive) | 38.4 µM (inactive) | 47.2 µM (inactive) | 70.8 µM (inactive) | > 10 µM (inactive) | 46.7 µM (inactive) | > 100 µM (inactive) | 48 µM (inactive) | 17 µM (inactive) | > 100 µM (inactive) | > 100 µM (inactive) | 80.5 µM (inactive) | 25.3 µM (inactive) | > 100 µM (inactive) |  |  | 
COc1ccc(NC(=O)CC/C(CC(=O)C(C)(C)C)=N\NC(=O)C(N)=O)cc1 | > 100 µM (inactive) | > 100 µM (inactive) | > 100 µM (inactive) | > 100 µM (inactive) | > 100 µM (inactive) | > 100 µM (inactive) | > 100 µM (inactive) | > 100 µM (inactive) | > 100 µM (inactive) | > 100 µM (inactive) | > 100 µM (inactive) | > 100 µM (inactive) | > 100 µM (inactive) |  | > 100 µM (inactive) | > 100 µM (inactive) | > 100 µM (inactive) | 
N#C/C(=C/c1ccc2c(c1)OCO2)C(=O)c1ccccc1 | > 100 µM (inactive) | > 100 µM (inactive) | > 100 µM (inactive) | > 100 µM (inactive) | > 100 µM (inactive) | > 100 µM (inactive) | > 100 µM (inactive) | > 100 µM (inactive) | > 100 µM (inactive) | > 100 µM (inactive) | > 100 µM (inactive) | > 100 µM (inactive) | > 100 µM (inactive) | > 100 µM (inactive) | > 100 µM (inactive) |  | > 100 µM (inactive) | > 100 µM (inactive)
Cc1ccc(S(=O)(=O)N/N=C(/CC(=O)c2c(C)[n+]([O-])c3ccccc3[n+]2[O-])C(=O)Nc2ccc(C)c(C)c2)cc1 | > 100 µM (inactive) | 90.4 µM (inactive) | 34 µM (inactive) | > 100 µM (inactive) | > 100 µM (inactive) | > 100 µM (inactive) | 33.7 µM (inactive) | > 100 µM (inactive) | 87.1 µM (inactive) | 16.5 µM (inactive) | 88.7 µM (inactive) | > 100 µM (inactive) |  | 29.6 µM (inactive) | 41.9 µM (inactive) |  | > 100 µM (inactive) | > 100 µM (inactive)
Nc1nc(Cl)cc(NCC(O)CO)n1 (centres undefined) | > 100 µM (inactive) | > 100 µM (inactive) | > 100 µM (inactive) | > 100 µM (inactive) | > 100 µM (inactive) | > 100 µM (inactive) | > 100 µM (inactive) | > 100 µM (inactive) | > 100 µM (inactive) | > 100 µM (inactive) | > 100 µM (inactive) | > 100 µM (inactive) | > 100 µM (inactive) | > 100 µM (inactive) | > 100 µM (inactive) | > 100 µM (inactive) |  | > 100 µM (inactive)
Cn1cc(C(=O)c2ccccc2)c2ccccc2c1=O | > 100 µM (inactive) | > 100 µM (inactive) | > 100 µM (inactive) |  |  | > 100 µM (inactive) | > 100 µM (inactive) | > 100 µM (inactive) | > 100 µM (inactive) | > 100 µM (inactive) |  | > 100 µM (inactive) | > 100 µM (inactive) | 94.2 µM (inactive) | > 100 µM (inactive) | 62.8 µM (inactive) | 50.6 µM (inactive) | 
O=C1c2ccccc2C2(O)N(c3ccccc3)C(=S)N(c3ccccc3)C12O (centres undefined) | > 100 µM (inactive) | > 100 µM (inactive) | > 100 µM (inactive) | 92.7 µM (inactive) | > 100 µM (inactive) | > 100 µM (inactive) | > 100 µM (inactive) | > 100 µM (inactive) | > 100 µM (inactive) | > 100 µM (inactive) | > 100 µM (inactive) | > 100 µM (inactive) | > 100 µM (inactive) | > 100 µM (inactive) | > 100 µM (inactive) |  | > 100 µM (inactive) | > 100 µM (inactive)
O=C(CC1C(=O)Nc2ccccc2S1(=O)=O)Nc1ccc(Cl)cc1 (centres undefined) |  | 18.4 µM (inactive) | 34 µM (inactive) | 17.1 µM (inactive) | 18.8 µM (inactive) | 14.4 µM (inactive) | 31.3 µM (inactive) | 31 µM (inactive) | 14.9 µM (inactive) | 15.2 µM (inactive) | 78.9 µM (inactive) | 22.7 µM (inactive) | 26.4 µM (inactive) | 4.84 µM (inactive) | 30.3 µM (inactive) | 16.9 µM (inactive) | 16.5 µM (inactive) | 25.8 µM (inactive)
Cc1cc2c(=O)c(C)n[nH]c2c(C#N)c1C | > 100 µM (inactive) | > 100 µM (inactive) | > 100 µM (inactive) | > 100 µM (inactive) | > 100 µM (inactive) | > 100 µM (inactive) | > 100 µM (inactive) |  | > 100 µM (inactive) | > 100 µM (inactive) | > 100 µM (inactive) | > 100 µM (inactive) | > 100 µM (inactive) | > 100 µM (inactive) | > 100 µM (inactive) | 29.4 µM (inactive) |  | 
COC1CC(O)C(OC(=O)c2ccccc2)C(C)O1 (centres undefined) |  | > 100 µM (inactive) | > 100 µM (inactive) |  | > 100 µM (inactive) | > 100 µM (inactive) | > 100 µM (inactive) | > 100 µM (inactive) | > 10 µM (inactive) | > 100 µM (inactive) | > 100 µM (inactive) | > 100 µM (inactive) | > 100 µM (inactive) | > 100 µM (inactive) | > 100 µM (inactive) | > 100 µM (inactive) | > 100 µM (inactive) | > 100 µM (inactive)
COc1ccc(-c2cc(=O)c3cc(C)c(C)c(C(=O)O)c3o2)cc1 | > 100 µM (inactive) | > 100 µM (inactive) | > 100 µM (inactive) | > 100 µM (inactive) | > 100 µM (inactive) |  | > 100 µM (inactive) |  | > 100 µM (inactive) | > 100 µM (inactive) |  |  | > 100 µM (inactive) | > 100 µM (inactive) | > 100 µM (inactive) | < 0.01 µM (active) | > 100 µM (inactive) | > 100 µM (inactive)
CC1(c2cccc(C3CC4(CCC3=O)OCCCCO4)c2)OCCO1 (centres undefined) |  | > 100 µM (inactive) | > 100 µM (inactive) | > 100 µM (inactive) | > 100 µM (inactive) | > 100 µM (inactive) | > 100 µM (inactive) | > 100 µM (inactive) | > 100 µM (inactive) | > 100 µM (inactive) | > 100 µM (inactive) | > 100 µM (inactive) | > 100 µM (inactive) | > 100 µM (inactive) | > 100 µM (inactive) |  | > 100 µM (inactive) | > 100 µM (inactive)
COc1ccc(OC)c2cc(C3(C)SCCCS3)ccc12 | > 100 µM (inactive) | > 100 µM (inactive) | > 100 µM (inactive) | > 100 µM (inactive) | > 100 µM (inactive) | > 100 µM (inactive) | > 100 µM (inactive) | 65 µM (inactive) | > 100 µM (inactive) | > 100 µM (inactive) | > 100 µM (inactive) | > 100 µM (inactive) | > 100 µM (inactive) | 69.3 µM (inactive) | 78.3 µM (inactive) |  | 61 µM (inactive) | > 100 µM (inactive)
O=C(NC1CC1)c1c(O)[nH]c(=S)[nH]c1=O |  |  | > 100 µM (inactive) | > 100 µM (inactive) | > 100 µM (inactive) | > 100 µM (inactive) | > 100 µM (inactive) | > 100 µM (inactive) | > 100 µM (inactive) | > 100 µM (inactive) | > 100 µM (inactive) | > 100 µM (inactive) | > 100 µM (inactive) | > 100 µM (inactive) | > 100 µM (inactive) | > 100 µM (inactive) | > 100 µM (inactive) | > 100 µM (inactive)
COc1ncn(C2C=C(CO)C(O)C2O)c(=O)n1 (centres undefined) | > 100 µM (inactive) | > 100 µM (inactive) | > 100 µM (inactive) | > 100 µM (inactive) | < 0.01 µM (active) | > 100 µM (inactive) | < 0.01 µM (active) | > 100 µM (inactive) | > 100 µM (inactive) | > 100 µM (inactive) |  | > 100 µM (inactive) | > 100 µM (inactive) | > 100 µM (inactive) | > 100 µM (inactive) |  | < 0.01 µM (active) | > 100 µM (inactive)
CCN(CC)CCCNC(=O)c1ccc([N+](=O)[O-])cc1O | > 100 µM (inactive) | > 100 µM (inactive) | > 100 µM (inactive) | > 100 µM (inactive) | > 100 µM (inactive) | > 100 µM (inactive) | > 100 µM (inactive) | > 100 µM (inactive) | > 100 µM (inactive) | > 100 µM (inactive) | > 100 µM (inactive) | > 100 µM (inactive) | > 100 µM (inactive) |  | > 100 µM (inactive) | > 100 µM (inactive) | > 100 µM (inactive) | > 100 µM (inactive)
O=C(N/N=C/c1cccc(F)c1)c1ccncc1 |  | > 100 µM (inactive) | > 100 µM (inactive) |  | > 100 µM (inactive) | > 100 µM (inactive) | > 100 µM (inactive) | > 100 µM (inactive) | > 100 µM (inactive) |  |  | > 100 µM (inactive) |  | > 100 µM (inactive) | > 100 µM (inactive) | > 100 µM (inactive) | > 10 µM (inactive) | > 100 µM (inactive)
